Source: US20080234262A1 (Wyeth, priority 2007, published 2008)

What was measured:
PI3K = PI3K (Homo sapiens, UniProt P42336); experiment: Fluorescence polarization assay for PI3K; format: biochemical; conditions: PI3Kα; read-out: PI3Kα IC50;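 further: PI3K kinase reaction on PIP2 with ATP, 30-60 min, product sensed by GST-GRP with red probe in fluorescence polarization (mP), controls without enzyme and at zero time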
breast line MDA468 = experiment: In vitro cell culture growth assay (MTS), MDA468; format: cell-based, human; conditions: MDA468 cells, three days after drug treatment
Summary of the method: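 Three-day drug treatment starting 1 day post-plating; viable cells quantified via MTS metabolism (A490); effect normalised to in-plate vehicle controls as % growth.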

prostate line LNCap = experiment: In vitro cell culture growth assay (MTS), LNCap; format: cell-based, human; conditions: LNCap cells, three days after drug treatment;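 further: viable cell density read by absorbance at 490 nm, growth expressed as percent of vehicle-treated cells on the same plate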

Chain of PI3K (P42336 whole entry): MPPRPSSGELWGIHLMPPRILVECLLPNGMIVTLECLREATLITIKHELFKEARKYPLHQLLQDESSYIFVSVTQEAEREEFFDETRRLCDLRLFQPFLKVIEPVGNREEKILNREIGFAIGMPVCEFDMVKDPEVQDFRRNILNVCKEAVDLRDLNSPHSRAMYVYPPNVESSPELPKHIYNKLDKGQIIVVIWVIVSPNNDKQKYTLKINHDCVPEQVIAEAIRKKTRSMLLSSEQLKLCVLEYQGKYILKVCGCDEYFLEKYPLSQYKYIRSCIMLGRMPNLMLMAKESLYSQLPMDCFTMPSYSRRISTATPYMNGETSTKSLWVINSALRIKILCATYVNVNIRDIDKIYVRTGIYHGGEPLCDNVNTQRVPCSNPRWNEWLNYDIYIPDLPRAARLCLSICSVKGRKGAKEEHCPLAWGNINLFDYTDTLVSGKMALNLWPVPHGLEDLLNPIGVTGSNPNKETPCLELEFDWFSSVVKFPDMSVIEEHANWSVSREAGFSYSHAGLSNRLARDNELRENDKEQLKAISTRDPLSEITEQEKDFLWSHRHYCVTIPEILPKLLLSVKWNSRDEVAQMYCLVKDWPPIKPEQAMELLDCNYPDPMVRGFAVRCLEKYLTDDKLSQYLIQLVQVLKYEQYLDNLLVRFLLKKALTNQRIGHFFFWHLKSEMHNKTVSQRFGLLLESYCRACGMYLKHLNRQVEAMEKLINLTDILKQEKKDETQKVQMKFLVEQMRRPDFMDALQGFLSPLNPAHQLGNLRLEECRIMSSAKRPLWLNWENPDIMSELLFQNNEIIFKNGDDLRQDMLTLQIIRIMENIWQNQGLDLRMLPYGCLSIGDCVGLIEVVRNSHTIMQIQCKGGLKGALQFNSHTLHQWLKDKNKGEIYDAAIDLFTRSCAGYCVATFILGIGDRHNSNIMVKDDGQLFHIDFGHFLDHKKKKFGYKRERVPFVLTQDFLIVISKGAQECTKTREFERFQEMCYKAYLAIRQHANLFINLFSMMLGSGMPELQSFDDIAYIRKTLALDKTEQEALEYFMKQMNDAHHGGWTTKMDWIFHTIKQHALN
Chain of PI3K (P27986 whole entry partner): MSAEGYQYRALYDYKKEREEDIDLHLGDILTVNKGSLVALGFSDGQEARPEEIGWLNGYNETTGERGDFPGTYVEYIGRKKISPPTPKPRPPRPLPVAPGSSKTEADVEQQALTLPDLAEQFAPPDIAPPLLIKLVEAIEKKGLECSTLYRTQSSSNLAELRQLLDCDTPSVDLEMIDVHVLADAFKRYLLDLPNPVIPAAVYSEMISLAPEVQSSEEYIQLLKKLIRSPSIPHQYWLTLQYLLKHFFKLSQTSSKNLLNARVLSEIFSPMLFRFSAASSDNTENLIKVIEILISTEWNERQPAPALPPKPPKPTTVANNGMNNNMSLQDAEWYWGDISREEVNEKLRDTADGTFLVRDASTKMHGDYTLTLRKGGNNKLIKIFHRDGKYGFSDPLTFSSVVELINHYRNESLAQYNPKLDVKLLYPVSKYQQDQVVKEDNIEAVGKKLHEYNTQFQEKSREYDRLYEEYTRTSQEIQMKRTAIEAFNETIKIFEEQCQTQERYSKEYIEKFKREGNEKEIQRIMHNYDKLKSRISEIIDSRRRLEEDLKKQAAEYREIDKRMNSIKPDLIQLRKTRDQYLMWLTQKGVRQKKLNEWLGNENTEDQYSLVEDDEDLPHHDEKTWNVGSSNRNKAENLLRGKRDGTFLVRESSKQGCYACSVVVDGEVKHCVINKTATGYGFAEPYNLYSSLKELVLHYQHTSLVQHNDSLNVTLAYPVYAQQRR

Row | Structure (SMILES) | IC50 (PI3K) [nM] | IC50 (breast line MDA468; Homo sapiens, 72 h) [nM] | IC50 (prostate line LNCap; Homo sapiens, LNCaP, 72 h) [nM] | IC50 (breast line MDA468) [nM] | IC50 (prostate line LNCap) [nM]
1 | CNC(=O)Nc1ccc(-c2nc(N3CCOCC3)c3cnn(C4CCN(C(=O)c5ccccc5C)CC4)c3n2)cc1 [Compound 602, 1-methyl-3-(4-{1-[1-(2-methylbenzoyl)piperidin-4-yl]-4-morpholin-4-yl-1H-pyrazolo[3,4-d]pyrimidin-6-yl}phenyl)urea] | 93 | 70 | < 27 |  | 
2 | O=C(NO)Nc1ccc(-c2nc(N3CCOCC3)c3cnn(C4CCN(Cc5ccccc5)CC4)c3n2)cc1 [Compound 555, 1-{4-[1-(1-benzylpiperidin-4-yl)-4-morpholin-4-yl-1H-pyrazolo[3,4-d]pyrimidin-6-yl]phenyl}-3-hydroxyurea] | 198 | 1100 | 100 |  | 
3 | NS(=O)(=O)c1cccc(-c2nc(N3CCOCC3)c3cnn(C4CCN(Cc5ccccc5)CC4)c3n2)c1 [Compound 83] | 2410 | 7000 | 4000 |  | 
4 | C=CCONC(=O)Nc1ccc(-c2nc(N3CCOCC3)c3cnn(-c4ccccc4)c3n2)cc1 [Compound 296, 1-(allyloxy)-3-[4-(4-morpholin-4-yl-1-phenyl-1H-pyrazolo[3,4-d]pyrimidin-6-yl)phenyl]urea] | 896 | 60000 | 3000 |  | 
5 | C=CC(=O)N1CCC(n2ncc3c(N4CCOCC4)nc(-c4ccc(NC(=O)OC)cc4)nc32)CC1 [Compound 458, methyl {4-[1-(1-acryloylpiperidin-4-yl)-4-morpholin-4-yl-1H-pyrazolo[3,4-d]pyrimidin-6-yl]phenyl}carbamate] | 1980 | 1200 | 930 |  | 
6 | CCNC(=O)Nc1ccc(-c2nc(N3CCOCC3)c3cnn(C4CCN(C(=O)c5cccnc5)CC4)c3n2)cc1 [Compound 552, 1-ethyl-3-(4-{4-morpholin-4-yl-1-[1-(pyridin-3-ylcarbonyl)piperidin-4-yl]-1H-pyrazolo[3,4-d]pyrimidin-6-yl}phenyl)urea] | 434 | 180 | 60 |  | 
7 | CN(C)CC=CC(=O)N1CCC(n2ncc3c(N4CCOCC4)nc(-c4ccc5[nH]ccc5c4)nc32)CC1 [Compound 487, 4-{4-[6-(1H-indol-5-yl)-4-morpholin-4-yl-1H-pyrazolo[3,4-d]pyrimidin-1-yl]piperidin-1-yl}-N,N-dimethyl-4-oxobut-2-en-1-amine] | 480 | 2000 | 1000 |  | 
8 | CC(C)OC(=O)N1CCC(n2ncc3c(N4CCOCC4)nc(-c4ccc(NC(=O)Nc5ccccn5)cc4)nc32)CC1 [Compound 837, isopropyl 4-(4-morpholin-4-yl-6-{4-[(pyridin-2-ylcarbamoyl)amino]phenyl}-1H-pyrazolo[3,4-d]pyrimidin-1-yl)piperidine-1-carboxylate] | 12000 | 4600 | 2500 |  | 
9 | CCOC(=O)N1CCC(n2ncc3c(N4CCOCC4)nc(-c4ccc(NC(=O)Nc5cccnc5)cc4)nc32)CC1 [Compound 816, ethyl 4-(4-morpholin-4-yl-6-{4-[(pyridin-3-ylcarbamoyl)amino]phenyl}-1H-pyrazolo[3,4-d]pyrimidin-1-yl)piperidine-1-carboxylate] | 60 | < 27 | < 27 |  | 
10 | O=C(NO)Nc1ccc(-c2nc(N3CCOCC3)c3cnn(C4CCN(Cc5ccccc5)CC4)c3n2)cc1 [Compound 310, 1-{4-[1-(1-benzylpiperidin-4-yl)-4-morpholin-4-yl-1H-pyrazolo[3,4-d]pyrimidin-6-yl]phenyl}-3-hydroxyurea] | 199 | 1100 | 100 |  | 
11 | CN(C)CC(=O)Nc1ccc(-c2nc(N3CCOCC3)c3cn[nH]c3n2)cc1 [Compound 527, N^2,N^2-dimethyl-N-[4-(4-morpholin-4-yl-1H-pyrazolo[3,4-d]pyrimidin-6-yl)phenyl]glycinamide] | 2270 | 18000 | 7000 |  | 
12 | COC(=NC#N)Nc1ccc(-c2nc(N3CCOCC3)c3cnn(C4CCN(Cc5cccnc5)CC4)c3n2)cc1 [Compound 654, methyl N′-cyano-N-(4-{4-morpholin-4-yl-1-[1-(pyridin-3-ylmethyl)piperidin-4-yl]-1H-pyrazolo[3,4-d]pyrimidin-6-yl}phenyl)imidocarbamate] | 592 |  |  | 1300 | 2200
13 | CNC(=O)Nc1ccc(-c2nc(N3CCOCC3)c3cnn(C4CCN(C(=O)c5cccc(C(C)=O)c5)CC4)c3n2)cc1 [Compound 667, 1-(4-{1-[1-(3-acetylbenzoyl)piperidin-4-yl]-4-morpholin-4-yl-1H-pyrazolo[3,4-d]pyrimidin-6-yl}phenyl)-3-methylurea] | 83 |  |  | 150 | 110
14 | CNC(=O)Nc1ccc(-c2nc(N3CCOCC3)c3cnn(C4CCN(C(=O)c5ccccc5OC)CC4)c3n2)cc1 [Compound 611, 1-(4-{1-[1-(2-methoxybenzoyl)piperidin-4-yl]-4-morpholin-4-yl-1H-pyrazolo[3,4-d]pyrimidin-6-yl}phenyl)-3-methylurea] | 82 | 330 | < 27 |  | 
15 | NNC(=O)Nc1ccc(-c2nc(N3CCOCC3)c3cnn(C4CCN(Cc5ccccc5)CC4)c3n2)cc1 [Compound 554, N-{4-[1-(1-benzylpiperidin-4-yl)-4-morpholin-4-yl-1H-pyrazolo[3,4-d]pyrimidin-6-yl]phenyl}hydrazinecarboxamide] | 155 | 7500 | 900 |  | 
16 | Nc1ccnc(-c2nc(N3CCOCC3)c3cnn(-c4ccccc4)c3n2)c1 [Compound 681, 2-(4-morpholin-4-yl-1-phenyl-1H-pyrazolo[3,4-d]pyrimidin-6-yl)pyridin-4-amine] | 1460 |  |  | > 60000 | > 60000
17 | O=C(c1ccccn1)N1CCC(n2ncc3c(N4CCOCC4)nc(-c4ccc5[nH]ccc5c4)nc32)CC1 [Example 51] | 1100 | 1700 | 340 |  | 
18 | CNC(=O)Nc1ccc(-c2nc(N3CCOCC3)c3cnn(C4CCN(C(C)=O)CC4)c3n2)cc1 [Compound 716, 1-{4-[1-(1-acetylpiperidin-4-yl)-4-morpholin-4-yl-1H-pyrazolo[3,4-d]pyrimidin-6-yl]phenyl}-3-methylurea] | 224 |  |  | 1200 | 800
19 | NCC(=O)Nc1ccc(-c2nc(N3CCOCC3)c3cn[nH]c3n2)cc1 [Compound 528, N-[4-(4-morpholin-4-yl-1H-pyrazolo[3,4-d]pyrimidin-6-yl)phenyl]glycinamide] | 128 | 11000 | 9000 |  | 
20 | COC(=O)Nc1ccc(-c2nc(N3CCOCC3)c3cnn(C4CCN(C(=O)c5ccc(F)cc5F)CC4)c3n2)cc1 [Example 449, methyl (4-{1-[1-(2,4-difluorobenzoyl)piperidin-4-yl]-4-morpholin-4-yl-1H-pyrazolo[3,4-d]pyrimidin-6-yl}phenyl)carbamate] | 800 | 1200 | 500 |  | 
21 | S=C(Nc1cccnc1)N1CCC(n2ncc3c(N4CCOCC4)nc(-c4ccc5[nH]ccc5c4)nc32)CC1 [Compound 122, 4-[6-(1H-indol-5-yl)-4-morpholin-4-yl-1H-pyrazolo[3,4-d]pyrimidin-1-yl]-N-pyridin-3-ylpiperidine-1-carbothioamide] | 132 | 1300 | 700 |  | 
22 | Oc1cccc(-c2nc(N3CCOCC3)c3cnn(C4CCN(Cc5ccco5)CC4)c3n2)c1 [Compound 15] | 55 | 600 | 74 |  | 
23 | CCONC(=O)Nc1ccc(-c2nc(N3CCOCC3)c3cnn(C4CCN(Cc5ccccc5)CC4)c3n2)cc1 [Example 287, 1-{4-[1-(1-benzylpiperidin-4-yl)-4-morpholin-4-yl-1H-pyrazolo[3,4-d]pyrimidin-6-yl]phenyl}-3-ethoxyurea] | 273 | 200 | 680 |  | 
24 | O=C(NO)Nc1ccc(-c2nc(N3CCOCC3)c3cnn(C4CCN(Cc5cccnc5)CC4)c3n2)cc1 [Compound 317, 1-hydroxy-3-(4-{4-morpholin-4-yl-1-[1-(pyridin-3-ylmethyl)piperidin-4-yl]-1H-pyrazolo[3,4-d]pyrimidin-6-yl}phenyl)urea] | 259 | 1500 | 1100 |  | 
25 | COc1cccc(C(=O)Nc2ccc(-c3nc(N4CCOCC4)c4cnn(C5CCCCO5)c4n3)cc2)c1 (stereo not drawn) [Compound 519, 3-methoxy-N-{4-[4-morpholin-4-yl-1-(tetrahydro-2H-pyran-2-yl)-1H-pyrazolo[3,4-d]pyrimidin-6-yl]phenyl}benzamide] | 8320 | > 60000 | 1950 |  | 
26 | CNC(=O)Nc1ccc(-c2nc(N3CCOCC3)c3cnn(C4CCN(Cc5cccc(Cl)c5)CC4)c3n2)cc1 [Example 395, 1-(4-{1-[1-(3-chlorobenzyl)piperidin-4-yl]-4-morpholin-4-yl-1H-pyrazolo[3,4-d]pyrimidin-6-yl}phenyl)-3-methylurea] | 42 | 500 | 100 |  | 
27 | O=C(Nc1ccc(-c2nc(N3CCOCC3)c3cnn(C4CCN(Cc5cccnc5)CC4)c3n2)cc1)Nc1ccccn1 [Compound 588, 1-(4-{4-morpholin-4-yl-1-[1-(pyridin-3-ylmethyl)piperidin-4-yl]-1H-pyrazolo[3,4-d]pyrimidin-6-yl}phenyl)-3-pyridin-2-ylurea] | 90 | 1800 | 330 |  | 
28 | c1ccc(CCN2CCC(n3ncc4c(N5CCOCC5)nc(-c5ccc6[nH]ccc6c5)nc43)CC2)cc1 [Compound 239, 6-(1H-indol-5-yl)-4-morpholin-4-yl-1-[1-(2-phenylethyl)piperidin-4-yl]-1H-pyrazolo[3,4-d]pyrimidine] | 3090 | 3100 | 780 |  | 
29 | O=C(c1ccc(Cl)nc1)N1CCC(n2ncc3c(N4CCOCC4)nc(-c4cccc(O)c4)nc32)CC1 [Example 23] | 63 | 800 | 150 |  | 
